Reference: US20260297031A1, “HYDROXYLAMINE-BASED BCR-ABL1 INHIBITORS FOR TREATMENT OF CANCER” (University of Georgia Research Foundation, Inc., priority 2023, published 2026)
Read-outs that look alike come from different tables or passages of the source.

Columns and labels:
[1] = Metabolic stability in rat hepatocytes; type: in vitro ADME; settings: rat hepatocytes
Procedure: (§1) All calculations were carried out using Microsoft Excel. Peak areas were determined from extracted ion chromatograms.

[2] = Metabolic stability in rat liver microsomes; type: in vitro ADME; settings: rat liver microsomes
Procedure: (§2) Metabolic Stability in Liver Microsomes (Independently Performed by Pharmaron Inc., Ninqbo, CN)
(§3) This experiment was carried out under two separate set of conditions: i) with Cofactors (NADPH), which consisted of adding 25 μL of 10 mM NADPH to the incubations, giving a final NADPH concentration of 1 mM, and ii) without Cofactors (NADPH), which consisted of adding 25 μL of 100 mM phosphate buffer to the incubations. Under both sets of conditions, the final concentration of microsomes were 0.5 mg/mL. […] Samples were then centrifuged at 3,220 g for 40 min and aliquots of 100 μL of the supernatant were mixed with 100 μL of ultra-pure H2O and analyzed by LC-MS/MS.
(§4) Peak areas were determined from extracted ion chromatograms. The slope value, k, was determined by linear regression of the natural logarithm of the remaining percentage of the parent drug vs incubation time curve.

[3] = Metabolic stability in human liver microsomes; type: in vitro ADME; settings: human liver microsomes
Procedure: as §2, §3, §4

MDCKII-MDR1 permeability = settings: dog, MDCK-MDR1, pH 7.4
Procedure: MDCKII-MDR1 Permeability (Independently Performed By: Pharmaron Inc., Ninqbo, CN)
To each well of the Transwell insert and reservoir were added 50 μL and 25 mL of cell culture medium, respectively.
To determine the rate of drug transport in the apical to basolateral direction, 125 μL of the working solution of either test compounds or control compounds was added to the Transwell insert (apical compartment) and a 50 μL sample was immediately transferred from the apical compartment to 200 μL of acetonitrile containing internal standard (100 nM alprazolam, 200 nM caffeine, and 100 nM tolbutamide) in a new 96-well plate as the initial donor sample (A-B). The sample was then vortexed at 1,000 rpm for 10 min. The receiver plate (basolateral compartment) wells were then filled with 235 μL transport buffer. To determine the rate of drug transport in the basolateral to apical direction, 285 μL of the working solution of either test compounds or control compounds was added to the receiver plate (basolateral compartment) wells and a 50 μL of sample was immediately transferred from the basolateral compartment to 200 μL of acetonitrile containing internal standard in a new 96-well plate as the initial donor sample (B-A). The sample was vortexed for 10 min at 1,000 rpm. The Transwell insert (apical compartment) was then filled with 75 μL of transport buffer and the apical to basolateral direction and the basolateral to apical direction were done at the same time. […] After incubation, 50 μL samples from donor sides (apical compartment for Ap→BI flux, and basolateral compartment BI→Ap) and receiver sides (basolateral compartment for Ap→BI flux, and apical compartment for BI→Ap) were transferred to wells of a new 96-well plate, followed by the addition of 200 μL acetonitrile containing internal standard. […] An aliquot of 100 μL of the supernatant was mixed with an appropriate volume of ultra-pure water before LC-MS/MS analysis.
To monitor for monolayer integrity, Lucifer yellow leakage was determined after the 2 h transport period. This began by preparing a stock solution of Lucifer yellow in DMSO and diluted with HBSS (10 mM HEPES, pH 7.4.) to reach a final concentration of 100 μM. To each Transwell insert (apical compartment) was then added 100 μL of the Lucifer yellow solution, followed by filling the wells in the receiver plate (basolateral compartment) with 300 μL of HBSS (10 mM HEPES, pH 7.4).
The efflux ratio was determined using the following equation: […]

BCR-ABL1 Y253F = molecular target: T1, BCR-ABL1 Y253F (Homo sapiens, UniProt P00519, Y253F); test: KinaseProfiler radiometric kinase assay, BCR-ABL1 Y253F; type: biochemical; settings: [ATP] = 10 μM; mean of n = 2
T1 construct: BCR (fusion partner, as the printed name BCR-ABL1 says)

BCR-ABL1 T315I = molecular target: T2, BCR-ABL1 T315I (Homo sapiens, UniProt P00519, T315I); test: KinaseProfiler radiometric kinase assay, BCR-ABL1 T315I; type: biochemical; settings: [ATP] = 10 μM; mean of n = 2
T2 construct: BCR (fusion partner, as the printed name BCR-ABL1 says)

[4] = Metabolic stability in mouse hepatocytes; type: in vitro ADME; settings: read-out: Remaining Percentages
Procedure: as §1

[5] = read-out: LMCIint (rate of metabolism)

| Structure (SMILES) | half-life [1] [min] | hepatocyte CLint ([1]; read-out: HEPCIint (rate of metabolism)) [µL/min/1e6 cells] | half-life at 1 µM [2] [min] | microsomal CLint at 1 µM [2, 5] [µL/min/mg] | half-life at 1 µM [3] [min] | microsomal CLint at 1 µM [3, 5] [µL/min/mg] | Papp A→B at 2 h, 1 µM (MDCKII-MDR1 permeability) [×10⁻⁶ cm/s] | Papp B→A at 2 h, 1 µM (MDCKII-MDR1 permeability) [×10⁻⁶ cm/s] | efflux ratio at 1 µM (MDCKII-MDR1 permeability) | IC50 (BCR-ABL1 Y253F) [nM] | IC50 (BCR-ABL1 T315I) [nM] | remaining at 0.5 min ([4]; 0.5 min) [%] | remaining at […] ([4]; 15 min) [%] | remaining at 0.5 h ([4]; 30 min) [%] | remaining at 1 h ([4]; 60 min) [%] | remaining at […] ([4]; 90 min, BLOD = below level of detection) [%] | remaining at 2 h ([4]; 120 min, BLOD = below level of detection) [%] |
| --- | --- | --- | --- | --- | --- | --- | --- | --- | --- | --- | --- | --- | --- | --- | --- | --- | --- |
| COc1cc(Nc2c(C#N)cnc3cc(OCCON4CCN(C)CC4)c(OC)cc23)c(F)cc1Cl [Compound 15, 4-((4-chloro-2-fluoro-5-methoxyphenyl)amino)-6-methoxy-7-(2-((4-methylpiperazin-1-yl)oxy)ethoxy)quinoline-3-carbonitrile] | 12.3 | 113 | 4.9 | 286 | 4.3 | 321 | 0.7 | 19.3 | 26.5 | 1 | 166 | – | – | – | – | – | – |
| COc1cc(Cl)ccc1Nc1c(C#N)cnc2cc(OCCON3CCN(C)CC3)c(OC)cc12 [Compound 20, 4-((4-Chloro-2-methoxyphenyl)amino)-6-methoxy-7-(2-((4-methylpiperazin-1-yl)oxy)ethoxy)quinoline-3-carbonitrile] | – | – | – | – | – | – | – | – | – | – | – | 100 | 55.5 | 28.6 | 13.3 | 6.75 | 2.89 |
